This note sets out measurements from PMC3017052, “A Novel Peptide Derived from Human Apolipoprotein E Is an Inhibitor of Tumor Growth and Ocular Angiogenesis” (PLoS ONE, 2011).

In one data set the test system is HUVEC. Type of data set: cell-based, human. The note with it: 48 h. The procedure:
(§1) To confirm that apoEdp affects cell survival, cell viability was determined using the cell titer 96®AQuous One solution cell proliferation kit. ApoEdp treatment of HUVECs induced a dose-dependent inhibition of cell viability (Fig. 1A). […] To determine whether apoEdp suppresses tumor growth by directly affecting tumor cells, we performed a cell viability assay using human breast cancer MDA-MB-231 cell line in vitro and cell titer 96®AQuous One solution cell proliferation kit.
(§2) Figure 1 ApoEdp affects HUVEC survival but not MDA-MB-231. A. HUVEC: ApoEdp has a significant effect on VEGF-induced HUVEC viability. Cells were treated with apoEdp at the indicated concentrations and incubated with constant 50 ng/mL VEGF for 48 hr. All values were normalized to cell control of no VEGF and no apoEdp. Cell viability values (mean ± SEM) are expressed as % of the value of the VEGF control. B. MDA-MB-231: ApoEdp has no effect on MDA-MB-231viability. ApoEdp has no significant effect on MDA-MB-231 survival. Cells were treated with apoEdp at the indicated concentrations and incubated at 37°C for 2 days. Cell viability values (mean ± SEM) are expressed as % of the value of the control (untreated cells). […]
The effect of apoEdp on ED survival was evaluated. […] Two days later, cell numbers were determined using the CellTiter96 AQueous One solution cell proliferation kit (Promega, Madison, WI).

Another data set deals with MDA-MB-231 cells. It counts as cell-based, human. The note with it: 48 h. The procedure: as §1
as §2, with “Cells were treated with apoEdp at the indicated concentrations and incubated at 37°C for 2 days.” left out
Cell survival studies were carried out using the CellTiter96 AQueous One solution cell survival assay. […] The cells were incubated for 48 hr and then the AQueous One solution was added to the samples and measured at 490 nm.

The subject of data set [1] is VEGF-induced corneal angiogenesis. Kind of data set: Rabbit corneal micropocket assay (VEGF-induced angiogenesis). Type of data set: in vivo. The note with it: 160 ng VEGF pellet, topical 1% eye drops 50 µL 5 times per day for 5 days, compared to saline treated eyes. The procedure: To study the in vivo anti-angiogenic effect of apoEdp, we assessed its inhibitory effect on VEGF-induced corneal micro-pocket assay in rabbit eye model. The slow release micropellet (500 µm×500 µm) of 0.4 g of Compritol 888 ATO (Gattefosse) combined with 0.1 g of Squalane oil (Sigma) and 20 mg/mL L-α-phosphatidylcholine containing saline or 160 ng of VEGF were surgically implanted in the corneal micropocket created in the avascular area of rabbit cornea (Fig. 5A–B).
Figure 5 ApoEdp inhibits angiogenesis in rabbit corneal micropocket assay. Slow-releasing micro pellets (500 µm×500 µm) containing 160 ng of VEGF were corneally implanted in New Zealand white rabbits (1.5–2.5 kg). […] (A)The area of neovascular response, vessel length, and clock hours of new blood vessel of rabbits in each group were calculated according to the formula Area (mm^2) = C/12×3.1416 [r^2−(r−L)^ 2] where C = the number of clock hours at the limbus involved in the neovascular response, L = length of the longest neovascular pedicle from the limbus onto anterior cornea, and r = radius of the cornea. […]
Corneal micropockets were created with a modified von Graefe cataract knife in eyes of each […] NZ white rabbit. […] The area of neovascular response, vessel length, and clock hours of new blood vessels of the rabbits in each group were calculated according to the formula [55]. […]

Take Ac-LRKLRKRLLLRKLRKRLL-NH2 [apoEdp]: the “50% cytotoxicity (CC50), HUVEC viability” value in the data set with HUVEC is on record as “about 103 µM”. The “50% cytotoxic dose (CC50), MDA-MB-231 viability” value with MDA-MB-231 cells is given as over 300 µM. Besides, the “VEGF-induced angiogenesis in rabbit corneal micropocket” value in data set [1] is recorded as “significantly inhibited VEGF-induced angiogenesis”.
